The subject of this series is moderate to severe papular-pustular acne. In kind it is in vivo, human. The note with it: for skin irritation: human, in vivo. As for the experimental part:
This example compares therapeutically applied retinyl palmitate, retinoic acid, calcitriol, and combinations thereof in a cream at different concentrations with the effectiveness of the cream without any of the above compounds present in treating acne. The base cream used to prepare the experimental formulations is the commercially available […] cream. The different compounds at different concentrations were added to the cream and mixed very well. Sixty six volunteers were recruited and were randomly assigned to each of the groups. the subjects were selected on the basis of their having moderate to severe papular-pustular acne. Each group consisted of 3 males and 3 females. No other acne treatment was permitted during the period. Preparations were applied to the face in the morning and evening after washing the face with ordinary soap. Observations were made at time 0, 1, 4, and 8 weeks to assure that treatment was carried out according to direction. Judgments of “worse”, “no change”, “mild”, and “good” were made after 8 weeks of treatment.

This note sets out measurements from patent publication US6552009B2, “Compositions and methods of treating abnormal cell proliferation” (Gentrix LLC, priority 1998, dated 2003).

Turning to `CC1=C(/C=C/C(C)=C/C=C/C(C)=C/C(=O)O)C(C)(C)CCC1` [retinoic acid, reference compound], the skin irritation entry is “caused skin irritation”. Regarding `CCCCCCCCCCCCCCCC(=O)OC/C=C(C)/C=C/C=C(C)/C=C/C1=C(C)CCCC1(C)C` [retinyl palmitate], the skin irritation result is recorded as “did not”. The “improvement in treating acne versus lower concentrations” value (concentrations at about 1.5% and more) is on record as “remarkable improvement over lower concentrations”. Take `CC1=C(/C=C/C(C)=C/C=C/C(C)=C/CO)C(C)(C)CCC1=O` [4-oxo-retinol]: the skin irritation entry was “did not”.

Regarding `C=C1/C(=C\C=C2/CCC[C@]3(C)[C@@H]([C@H](C)CCCC(C)(C)O)CC[C@@H]23)C[C@@H](O)C[C@@H]1O` [calcitriol, reference compound], the skin irritation result is “caused skin irritation”.
